Reference: US11071300B2, “Pesticidally active pyrazole derivatives” (SYNGENTA PARTICIPATIONS AG, priority 2017, dated 2021)
Like-named read-outs stand apart in the source and are kept apart here.

Legend:
Assay type in all cases: in vivo
[1] = system: Diabrotica Balteata; experiment: Diabrotica balteata (corn root worm) maize sprout test; conditions: 96 h, read-out: control (mortality and growth inhibition)
Protocol: Diabrotica Balteata, (Corn Root Worm)
Maize sprouts, placed on an agar layer in 24-well microtiter plates were treated with aqueous test solutions prepared from 10′000 ppm DMSO stock solutions by spraying. After drying, the plates were infested with L2 larvae (6 to 10 per well). The samples were assessed for mortality and growth inhibition in comparison to untreated samples 4 days after infestation.

[2] = system: Myzus persicae; experiment: Myzus persicae (green peach aphid) leaf disc test; conditions: foliar, 144 h, read-out: control (mortality)
Protocol: Myzus persicae (Green Peach Aphid):
Sunflower leaf discs were placed on agar in a 24-well microtiter plate and sprayed with test solutions at an application rate of 200 ppm. After drying, the leaf discs were infested with an aphid population of mixed ages. After an incubation period of 6 DAT, samples were checked for mortality.

[3] = system: Spodoptera littoralis; experiment: Spodoptera littoralis (Egyptian cotton leaf worm) leaf disc test; conditions: foliar, 72 h, application rate 200 ppm, cotton leaf discs sprayed, L1 larvae, 3 days after infestation, read-out: control (at least one of mortality, anti-feedant effect, growth inhibition)
Protocol: Spodoptera littoralis (Egyptian Cotton Leaf Worm)
Cotton leaf discs were placed on agar in 24-well microtiter plates and sprayed with aqueous test solutions prepared from 10′000 ppm DMSO stock solutions. After drying the leaf discs were infested with five L1 larvae. The samples were assessed for mortality, anti-feedant effect, and growth inhibition in comparison to untreated samples 3 days after infestation. Control of Spodoptera littoralis by a test sample is when at least one of mortality, anti-feedant effect, and growth inhibition is higher than the untreated sample.

[4] = system: Plutella xylostella; experiment: Plutella xylostella (diamond back moth) artificial diet test; conditions: 120 h, read-out: control (mortality and growth inhibition)
Protocol: Plutella xylostella (Diamond Back Moth):
24-well microtiter plates with artificial diet were treated with aqueous test solutions prepared from 10′000 ppm DMSO stock solutions by pipetting. After drying, the plates were infested with L2 larvae (10 to 15 per well). The samples were assessed for mortality and growth inhibition in comparison to untreated samples 5 days after infestation.

[5] = system: Thrips tabaci; experiment: Thrips tabaci (onion thrips) leaf disc test; conditions: foliar, 144 h, read-out: control (mortality)
Protocol: Thrips tabaci (Onion Thrips):
(§1) Sunflower leaf discs were placed on agar in 24-well microtiter plates and sprayed with aqueous test solutions prepared from 10′000 ppm DMSO stock solutions. After drying the leaf discs were infested with a thrips population of mixed ages. The samples were assessed for mortality 6 days after infestation.

[6] = system: Tetranychus urticae; experiment: Tetranychus urticae (two-spotted spider mite) leaf disc test; conditions: foliar, 192 h, application rate 200 ppm, bean leaf discs sprayed, 8 days after infestation, read-out: control (mortality on mixed population, mobile stages)
Protocol: Tetranychus urticae (Two-Spotted Spider Mite):
as §1, with “Bean” for “Sunflower”, “discs” for “discs were placed”, “were” for “and”, “mite” for “thrips”, “on mixed population (mobile stages) 8” for “6”

[7] = application rate 200 ppm, artificial diet, L2 larvae, 5 days after infestation
[8] = application rate 200 ppm, maize sprouts sprayed, L2 larvae, 4 days after infestation
[9] = application rate 200 ppm, sunflower leaf discs sprayed, mixed ages, 6 days after infestation
[10] = application rate 200 ppm, sunflower leaf discs sprayed, mixed ages, 6 DAT

CCN(C(=O)c1cc(-c2cc(-c3c(C(F)(F)F)c(OS(=O)(=O)C(F)(F)C(F)(F)C(F)(F)C(F)(F)F)nn3C)no2)ccc1Cl)C1CC1 [Compound 41, [5-[5-[4-chloro-3-[cyclopropyl(ethyl)carbamoyl]phenyl]isoxazol-3-yl]-1-methyl-4-(trifluoromethyl)pyrazol-3-yl] 1,1,2,2,3,3,4,4,4-nonafluorobutane-1-sulfonate]
≥ 80%: mortality at 200 ppm [1] | mortality at 200 ppm [2]

CCN(C(=O)c1cc(-c2cnn(-c3c(C(F)(F)F)c(OS(=O)(=O)C(F)(F)C(F)(F)F)nn3C)c2)ccc1Cl)C1CC1 [Compound 14, [5-[4-[4-chloro-3-[cyclopropyl(ethyl)carbamoyl]phenyl]pyrazol-1-yl]-1-methyl-4-(trifluoromethyl)pyrazol-3-yl] 1,1,2,2,2-pentafluoroethanesulfonate]
≥ 80%: percent control (mortality, anti-feedant effect or growth inhibition) at 200 ppm [3] | mortality at 200 ppm [4, 7] | mortality at 200 ppm [1, 8] | mortality at 200 ppm [5, 9] | mortality at 200 ppm [2, 10]

CN(C(=O)c1cc(-c2cnn(-c3c(C(F)(F)F)c(OS(=O)(=O)C(F)(C(F)(F)F)C(F)(F)F)nn3C)c2)cnc1Cl)C1CC1 [Compound 22, [5-[4-[6-chloro-5-[cyclopropyl(methyl)carbamoyl]-3-pyridyl]pyrazol-1-yl]-1-methyl-4-(trifluoromethyl)pyrazol-3-yl] 1,1,1,2,3,3,3-heptafluoropropane-2-sulfonate]
≥ 80%: percent control (mortality, anti-feedant effect or growth inhibition) at 200 ppm [3] | mortality at 200 ppm [4, 7] | mortality at 200 ppm [1, 8] | mortality at 200 ppm [5, 9] | mortality at 200 ppm [6] | mortality at 200 ppm [2, 10]

CCN(C(=O)c1cc(-c2cnn(-c3c(C(F)(F)F)c(OS(=O)(=O)C(F)(F)C(F)(F)Cl)nn3C)c2)ccc1Cl)C1CC1 [Compound 10, [5-[4-[4-chloro-3-[cyclopropyl(ethyl)carbamoyl]phenyl]pyrazol-1-yl]-1-methyl-4-(trifluoromethyl)pyrazol-3-yl] 2-chloro-1,1,2,2-tetrafluoro-ethanesulfonate]
≥ 80%: percent control (mortality, anti-feedant effect or growth inhibition) at 200 ppm [3] | mortality at 200 ppm [4, 7] | mortality at 200 ppm [1, 8] | mortality at 200 ppm [5, 9] | mortality at 200 ppm [6] | mortality at 200 ppm [2, 10]

Cn1nc(OS(=O)(=O)C(F)(F)C(F)(F)C(F)(F)C(F)(F)F)c(C(F)(F)F)c1-n1cc(-c2cnc(Cl)c(C(=O)NC3CC3)c2)cn1 [Compound 27, [5-[4-[6-chloro-5-(cyclopropylcarbamoyl)-3-pyridyl]pyrazol-1-yl]-1-methyl-4-(trifluoromethyl)pyrazol-3-yl] 1,1,2,2,3,3,4,4,4-nonafluorobutane-1-sulfonate]
≥ 80%: percent control (mortality, anti-feedant effect or growth inhibition) at 200 ppm [3] | mortality at 200 ppm [4] | mortality at 200 ppm [1] | mortality at 200 ppm [5] | mortality at 200 ppm [2]

CCN(C(=O)c1cc(-c2cnn(-c3c(C(F)(F)F)c(OS(=O)(=O)C(F)(F)C(F)(F)C(F)(F)C(F)(F)F)nn3C)c2)cnc1Cl)C1CC1 [Compound 29, [5-[4-[6-chloro-5-[cyclopropyl(ethyl)carbamoyl]-3-pyridyl]pyrazol-1-yl]-1-methyl-4-(trifluoromethyl)pyrazol-3-yl] 1,1,2,2,3,3,4,4,4-nonafluorobutane-1-sulfonate]
≥ 80%: mortality at 200 ppm [4] | mortality at 200 ppm [1] | mortality at 200 ppm [2]

Cn1nc(OS(=O)(=O)C(F)(F)C(F)(F)F)c(C(F)(F)F)c1-n1cc(-c2ccc(Cl)c(C(=O)NC3CC3)c2)cn1 [Compound 20, [5-[4-[4-chloro-3-(cyclopropylcarbamoyl)phenyl]pyrazol-1-yl]-1-methyl-4-(trifluoromethyl)pyrazol-3-yl] 1,1,2,2,2-pentafluoroethanesulfonate]
≥ 80%: percent control (mortality, anti-feedant effect or growth inhibition) at 200 ppm [3] | mortality at 200 ppm [4, 7] | mortality at 200 ppm [1, 8] | mortality at 200 ppm [5, 9] | mortality at 200 ppm [6]

Cn1nc(OS(=O)(=O)C(F)(F)C(F)(F)Cl)c(C(F)(F)F)c1-n1cc(-c2ccc(Cl)c(C(=O)NC3(C#N)CC3)c2)cn1 [Compound 8, [5-[4-[4-chloro-3-[(1-cyanocyclopropyl)carbamoyl]phenyl]pyrazol-1-yl]-1-methyl-4-(trifluoromethyl)pyrazol-3-yl] 2-chloro-1,1,2,2-tetrafluoro-ethanesulfonate]
≥ 80%: percent control (mortality, anti-feedant effect or growth inhibition) at 200 ppm [3] | mortality at 200 ppm [4, 7] | mortality at 200 ppm [1, 8] | mortality at 200 ppm [5, 9] | mortality at 200 ppm [6] | mortality at 200 ppm [2, 10]

CN(C(=O)c1cc(-c2cnn(-c3c(C(F)(F)F)c(OS(=O)(=O)C(F)(F)C(F)(F)Cl)nn3C)c2)ccc1Cl)C1(C#N)CC1 [Compound 19, [5-[4-[4-chloro-3-[(1-cyanocyclopropyl)-methyl-carbamoyl]phenyl]pyrazol-1-yl]-1-methyl-4-(trifluoromethyl)pyrazol-3-yl] 2-chloro-1,1,2,2-tetrafluoro-ethanesulfonate]
≥ 80%: percent control (mortality, anti-feedant effect or growth inhibition) at 200 ppm [3] | mortality at 200 ppm [4, 7] | mortality at 200 ppm [1, 8] | mortality at 200 ppm [5, 9] | mortality at 200 ppm [6] | mortality at 200 ppm [2, 10]

Cn1nc(OS(=O)(=O)C(F)(C(F)(F)F)C(F)(F)F)c(C(F)(F)F)c1-n1cc(-c2ccc(Cl)c(C(=O)NC3(C(F)F)CC3)c2)cn1 [Compound 64, [5-[4-[4-chloro-3-[[1-(difluoromethyl)cyclopropyl]carbamoyl]phenyl]pyrazol-1-yl]-1-methyl-4-(trifluoromethyl)pyrazol-3-yl] 1,1,1,2,3,3,3-heptafluoropropane-2-sulfonate]
≥ 80%: percent control (mortality, anti-feedant effect or growth inhibition) at 200 ppm [3] | mortality at 200 ppm [4, 7] | mortality at 200 ppm [6] | mortality at 200 ppm [2, 10]

Cn1nc(OS(=O)(=O)C(F)(C(F)(F)F)C(F)(F)F)c(C(F)(F)F)c1-n1cc(-c2cnc(Cl)c(C(=O)NC3(C#N)CC3)c2)cn1 [Compound 24, [5-[4-[6-chloro-5-[(1-cyanocyclopropyl)carbamoyl]-3-pyridyl]pyrazol-1-yl]-1-methyl-4-(trifluoromethyl)pyrazol-3-yl] 1,1,1,2,3,3,3-heptafluoropropane-2-sulfonate]
≥ 80%: percent control (mortality, anti-feedant effect or growth inhibition) at 200 ppm [3] | mortality at 200 ppm [4, 7] | mortality at 200 ppm [1, 8] | mortality at 200 ppm [6]

CCN(C(=O)c1cc(-c2cnn(-c3c(C(F)(F)F)c(OS(=O)(=O)C(F)(C(F)(F)F)C(F)(F)F)nn3C)c2)cnc1Cl)C1CC1 [Compound 23, [5-[4-[6-chloro-5-[cyclopropyl(ethyl)carbamoyl]-3-pyridyl]pyrazol-1-yl]-1-methyl-4-(trifluoromethyl)pyrazol-3-yl] 1,1,1,2,3,3,3-heptafluoropropane-2-sulfonate]
≥ 80%: percent control (mortality, anti-feedant effect or growth inhibition) at 200 ppm [3] | mortality at 200 ppm [4, 7] | mortality at 200 ppm [1, 8] | mortality at 200 ppm [6] | mortality at 200 ppm [2, 10]

CN(C(=O)c1cc(-c2cnn(-c3c(C(F)(F)F)c(OS(=O)(=O)C(F)(C(F)(F)F)C(F)(F)F)nn3C)c2)ccc1Cl)C1CC1 [Compound 17, [5-[4-[4-chloro-3-[cyclopropyl(methyl)carbamoyl]phenyl]pyrazol-1-yl]-1-methyl-4-(trifluoromethyl)pyrazol-3-yl] 1,1,1,2,3,3,3-heptafluoropropane-2-sulfonate]
≥ 80%: percent control (mortality, anti-feedant effect or growth inhibition) at 200 ppm [3] | mortality at 200 ppm [4, 7] | mortality at 200 ppm [1, 8] | mortality at 200 ppm [5, 9] | mortality at 200 ppm [6] | mortality at 200 ppm [2, 10]
